Reference: patent US20250082649A1, “ALTERATION OF NUTRIENT PREFERENCES VIA MODULATION OF NUTRIENT RECEPTORS IN THE GUT” (The Trustees of Columbia University in the City of New York, priority 2022, published 2025)
Entries after “also recorded” stand apart in the source; their conditions may differ.

Key:
[1] = test system: mice; experiment: Brief-access (30 min) two-bottle tests, immediate attraction; format: in vivo; conditions: 30 min two-bottle test, 3 mM AceK or 1.5% Intralipid, n=9 mice
Description: Two-bottle preference assays. No behavioral experiments, including the short-term assays for taste responses, or the 48 h tests examining the development of sugar or fat preference used water-restricted or food-deprived mice. Mice were given ad libitum access to food and water for several days prior to the behavioral tests; any food or water restriction would severely affect the mice's behavior in preference or taste responses. Development of fat preference: mice were first tested for their initial preference between 1.5% Intralipid and 3 mM AceK (pre testing) by completing 100 drinking trials. Each trial was initiated by the first lick and lasted for 5 s; the drinking ports then re-opened after 30 s of inter-trial interval. Next, mice were exposed to 500 licks to both 1.5% Intralipid and 3 mM AceK; this was repeated twice. […] The pre and post-preference indexes were calculated by dividing the number of licks to fat by the total lick count during the first 2-4 h (100 trials) of baseline measurements (pre) and during the last 2-4 h (100 trials) of the behavioural session (post), respectively. […] The ‘pre’ preference index was calculated as the number of licks to fat divided by the total lick count during the first 4 h; the “post” preference index was calculated as the number of licks to fat divided by the total lick count during the last 4 h of the session. […]

[2] = test system: vagal sensory neurons; experiment: Vagal calcium imaging (nodose ganglion, GCaMP6s) with intestinal delivery of stimuli; format: in vivo, mice; conditions: for responding vagal neurons of imaged neurons: intestinal delivery, 10% fatty acid or pre-digested Intralipid, FIG. 10E-10I stimuli interleaved with 10% LA (10 s)
Description: To directly examine and monitor the fat responses of vagal sensory neurons, functional imaging of the nodose ganglion (which contains the cell bodies of vagal neurons) was performed. The genetically encoded activity sensor GCaMP6s was targeted to vagal sensory neurons using Vglut2-Cre animals, and a one-photon calcium imaging set-up was used coupled to synchronous intestinal delivery of fat, sugar and other stimuli to record neuronal responses in vivo, with real time kinetics (FIG. 2E, FIG. 10A, FIG. 10B, FIG. 10C). To administer the stimuli, a catheter was placed into the duodenal bulb, and an exit port was created by transecting the intestine 10 cm distally. During each imaging session, the intestine was exposed to a pre-stimulus application of PBS, a 10 s or 60 s exposure to the test stimulus, and a 200 s post-stimulus wash; this regime was repeated at least 3 times for each stimulus.
Fat, sugar and amino acid intestinal stimulation. Stimuli for nodose imaging experiments were as follows. Sugar: 500 mM glucose. Amino acids: a mix consisting of 50 mM methionine, 50 mM serine, 50 mM alanine, 50 mM glutamine and 50 mM cysteine dissolved in PBS. Fat: 10% linoleic acid, 10% linolenic acid, 10% hexanoic acid, 10% DHA, 10% oleic acid, diluted in PBS containing 0.1% xanthan gum and 0.05% Tween 80, and vortexed for a minimum of 10 min. Vehicle control: 0.1% xanthan gum and 0.05% Tween 80. For sugar and fat intestinal stimulation in imaging experiments, a 10 s window of stimulation was used; for amino acids, a 60 s stimulus was used, as lower concentrations of each in the mix of several amino acids was used (see above). Note that if using Intralipid mix (a 20% soy bean oil emulsion, Santa Cruz) for nodose imaging experiments (rather than consumption where it would be naturally digested and broken down into short, medium and long chain fatty acids), the material was pre-digested with lipases (mimicking its natural course of action upon ingestion). […] Intralipid was incubated with 4 mg/ml lipase (sigma) in PBS plus 10 mM CaCl2 for a minimum of 5 h at 37° C.
Vagal calcium imaging. Each mouse was anaesthetized with ketamine (100 mg/kg) and xylazine (10 mg/kg). […] For glutamate receptor blocker experiments, a mixture of metabotropic glutamate receptor antagonist AP3 (2 mg/kg) and ionotropic glutamate receptor antagonist kynurenic acid (300 μg/kg) was used. CCKAR and glutamate receptor blockers were delivered both into the intestines and abdominal cavity; after a 5 min incubation period, the imaging session was started.
Calcium imaging data collection and analysis. […] Data was acquired at 5 Hz. A single field of view was chosen for recording and analysis from each ganglion. Calcium imaging data collected at 5 Hz was down-sampled by a factor of 2, and the images were stabilized using the NORMCorre algorithm. Motion-corrected movies were then manually segmented in ImageJ using the Cell Magic Wand plugin. Neuropil fluorescence was subtracted from each region of interest with the FISSA toolbox, and neural activity was denoised using the OASIS deconvolution algorithm. […] For experiments using blockers, two repeat trials per stimuli were used to accommodate the expanded time scale of the session (that is, before and after), and a neuron was considered a responder if it responded in both trials. The two-trial average area under curve for each stimulus was used to quantify the before and after responses (FIG. 12D, FIG. 12E). Imaging data is presented as heat maps of z-score-normalized responses.

[3] = test system: cNST neurons; experiment: Fibre photometry of cNST activity in response to intestinal delivery of stimuli; format: in vivo, mice; conditions: Penk-Cre animals
Description: Fibre photometry. Vglut2-cre; Ai96 mice were placed in a stereotaxic frame and implanted with a 400 μm core, 0.48 NA optical fibre (Doric Lenses) 50-100 μm over the left cNST. […] To quantify the effects of vagotomy, the ratio of stimulus-related peak amplitude of the normalized trace was calculated (within 120 s of stimulus onset) prior vagotomy versus after vagotomy. […] Stimulus delivery was performed via a series of peristaltic pumps (BioChem Fluidics) operated via custom Matlab software and Arduino microcontroller. Stimuli and washes were delivered through separate lines that converged on a common perfusion manifold (Warner Instruments) connected to the duodenal catheter. Trials consisted of a 60-s baseline (PBS 200 μl/min), a 30 s stimulus (200 μl/min), and a 3-min washout period (150 s at 600 μl/min, and 30 s at 150 μl/min). Stimuli were each presented three times in an interleaved fashion.

[4] = test system: cNST; experiment: Fos stimulation and histology, cNST; format: in vivo, mice; conditions: 90 min exposure; 20% Intralipid, 10% linoleic acid or 10% oleic acid vs xanthan gum / mineral oil controls
Source text: Separate cohorts of animals were exposed to 3 different lipid stimuli (Intralipid, linoleic acid, or oleic acid) and to fat-free textural controls (xanthan gum or mineral oil). […] The cNST is a nexus of interoceptive signals conveying information from the body to the brain via the gut-brain axis. If the fat-activated brain cNST neurons are receiving signals originating in the gut, then direct delivery of fat stimuli into the gut should also induce activation of the cNST. An intragastric catheter was implanted in the stomach and infused either a fat solution or a vehicle control. Intragastric infusion of fat, but not of a vehicle, is sufficient to activate the cNST as robustly as oral ingestion (FIG. 1E, FIG. 1F, FIG. 8J, FIG. 8K, FIG. 8L).
Fos stimulation and histology. Stimuli consisted of 20% Intralipid (sc215182, Santa Cruz Biotechnology), 10% linoleic acid, 10% oleic acid, 0.3% xanthan gum or 10% mineral oil. Stimuli were emulsified by dilution into milliQ water containing 0.1% xanthan gum and 0.05% Tween 80, and vortexed for a minimum of 10 min. […] Quantification of Fos labelling was carried out by recording the number of positive neurons in an equivalent 200×200 um area of the cNST (bregma—7.5 mm) and area postrema. […]

[5] = test system: vagal neurons; experiment: CCK application in vagal calcium imaging; format: in vivo, mice; conditions: 1 μg/ml CCK, 60 s
Source text: Calcium imaging data collection and analysis. […] Data was acquired at 5 Hz.

Compound: CC1=CC(=O)[N-]S(=O)(=O)O1.[K+] [AceK, acesulfame K]
- immediate attraction versus water [1]: strong innate attraction

Compound: CC/C=C\C/C=C\C/C=C\CCCCCCCC(=O)O [alpha-linolenic acid]
- responding vagal neurons of imaged neurons [2]: 49/322

Compound: CN1C(=O)[C@@H](NC(=O)c2cc3ccccc3[nH]2)N=C(c2ccccc2)c2ccccc21 [devazepide, Devazepide]
- cNST responses to intestinal fat stimulation after removing CCK-dependent signaling ([3]; photometric recordings, n=5): ~50%
- cNST sugar-evoked responses after inhibiting signaling via the CCK dependent pathway ([3]; photometric recordings, n=5): completely abolished

Compound: CC/C=C\C/C=C\C/C=C\C/C=C\C/C=C\C/C=C\CCC(=O)O [docosahexaenoic acid]
- responding vagal neurons of imaged neurons [2]: 51/348

Compound: CCCCCC(=O)O [hexanoic acid]
- responding vagal neurons of imaged neurons [2]: 52/495

Compound: CCCCC/C=C\C/C=C\CCCCCCCC(=O)O [linoleic acid]
- Fos labelling in cNST upon ingestion [4]: strong Fos labelling; also recorded: strong bilateral activation
- cNST neural responses to intestinal delivery ([3]; 10% linoleic acid or 500 mM glucose, n=4 mice): robust, time-locked responses
- neurons that responded only to fat (fat-only responders) ([2]; 10% linoleic acid and 500 mM glucose, 10 s, 1813 neurons imaged, 22 vagal ganglia): 153
- TRPA1-expressing vagal neurons responding to fat ([2]; Trpa1-Cre, Ai162, 163 imaged neurons from 5 ganglia, 10% linoleic acid): ~24%
- subset of vagal neurons with evoked responses, % of GCaMP-expressing Vglut2 neurons ([2]; intestinal infusion, Vglut2-Cre animals): 17%
- vagal neuron responses to intestinal delivery ([2]; vs vehicle control (0.1% xanthan gum plus 0.05% Tween 80)): strong responses; also recorded: robust responses

Compound: CCCCCCCC/C=C\CCCCCCCC(=O)O [oleic acid]
- Fos labelling in cNST upon ingestion [4]: strong Fos labelling; also recorded: strong bilateral activation
- responding vagal neurons of imaged neurons [2]: 39/418

Compound: Cholecystokinin [CCK]
- activation of fat-only vagal neurons [5]: not the fat-only vagal neurons
- activation of sugar/nutrient responding vagal neurons [5]: all sugar/nutrient responders were activated; also recorded: also responded to CCK
- activation of sugar/nutrient responding vagal neurons ([5]; listed as CCK peptide): strongly activated
